Measurements from ChEMBL document CHEMBL1142028, “(E)-Phenyl- and -heteroaryl-substituted O-benzoyl-(or acyl)oximes as lipoprotein-associated phospholipase A2 inhibitors” (Bioorg Med Chem Lett, 2005).

Target: T1, Platelet-activating factor acetylhydrolase (Homo sapiens, UniProt Q13093)
T1 sequence (Q13093 whole entry): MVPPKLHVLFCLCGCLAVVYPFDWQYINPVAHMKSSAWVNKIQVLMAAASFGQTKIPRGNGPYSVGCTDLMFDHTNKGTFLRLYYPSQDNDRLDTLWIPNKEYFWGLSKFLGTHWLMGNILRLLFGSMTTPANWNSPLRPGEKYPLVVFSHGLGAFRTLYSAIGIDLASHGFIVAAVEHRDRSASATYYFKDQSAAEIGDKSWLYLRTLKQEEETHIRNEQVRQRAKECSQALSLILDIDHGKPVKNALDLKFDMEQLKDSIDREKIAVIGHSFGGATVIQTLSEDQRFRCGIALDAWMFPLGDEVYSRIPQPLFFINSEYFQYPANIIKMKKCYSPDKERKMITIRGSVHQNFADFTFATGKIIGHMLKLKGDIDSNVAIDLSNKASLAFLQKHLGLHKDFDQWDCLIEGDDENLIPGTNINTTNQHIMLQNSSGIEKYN
Test: In vitro inhibitory activity against human lipoprotein-associated phospholipase A2; NA - not active; call rule not given here

With `O=C(ON=C(c1ccccc1)c1ccccc1)c1ccccc1` [(DIPHENYLMETHYLIDENE)AMINO BENZOATE] as the molecule, how does the IC50 read?
Its IC50 is “Not Active”.
